Measurements taken from patent US20230248814A1, “COMPOSITIONS AND METHODS FOR TREATING MERKEL CELL CARCINOMA (MCC) USING HLA CLASS I SPECIFIC EPITOPES” (The Broad Institute, Inc., priority 2020, published 2023).

Columns and labels:
Assay type in all cases: cell-based, human
MKL-1 cells [1] = experiment: USP7 inhibitor flow cytometry for surface HLA-I in MKL-1 p53-WT control and p53-KO lines; conditions: MKL-1 TP53-KO and TP53-WT lines; 100 nM
Description: For MKL-1 USP7 inhibitor experiments, p53-WT control lines (WT, scrambled, AAVS1) and three p53-KO lines were treated with USP7 inhibitors and assessed by flow cytometry for surface HLA I as described above for MCC-301.

MCC-301 cells = experiment: HLA-I-bound peptidome (TMT LC-MS/MS) of USP7 inhibitor treated MCC-301 cells
Description: Immunopeptidomes of USP7 inhibitor treated cell lines were eluted as described above, followed by labeling with TMT6 reagent (Thermo Fisher; 126-USP7iA, 127-WT, 128 USP7iA, 129 WT, 130-USP7iB, 131 USP7iB) and then pooled for subsequent fractionation using basic reversed phase fractionation with increasing concentrations of acetonitrile (10%, 15% and 50%) in 5 mM ammonium formate (pH 10) and analysis on an Orbitrap Exploris 480 with FAIMSpro. Data acquisition parameters were as above with NCE set to 34 and 2 second dynamic exclusion.
Mass spectra were interpreted using Spectrum Mill software package v7.1 pre-Release (Broad Institute, Cambridge, MA). […] Merging of similar spectra with the same precursor m/z acquired in the same chromatographic peak was disabled. MS/MS spectra were searched against a protein sequence database that contained 90,904 entries, including all UCSC Genome Browser genes with hg19 annotation of the genome and its protein coding transcripts (52,788 entries), common human virus sequences (30,181 entries), recurrently mutated proteins observed in tumors from 26 tissues (4,595 entries), 264 common laboratory contaminants as well as protein sequences containing somatic mutations detected in MCC cell lines (3,076 entries). MS/MS search parameters included: no-enzyme specificity; ESI-QEXACTIVE-HCD-HLA-v3 instrument scoring; fixed modification: […]; variable modifications: oxidation of methionine, carbamidomethylation of cysteine and pyroglutamic acid at peptide N-terminal glutamine; precursor mass tolerance of ±10 ppm; product mass tolerance of ±10 ppm, and a minimum matched peak intensity of 30%. Peptide spectrum matches (PSMs) for individual spectra were automatically designated as confidently assigned using the Spectrum Mill auto-validation module to apply target-decoy based FDR estimation at the PSM level of <1% FDR. Peptide auto-validation was done separately for each sample with an auto thresholds strategy to optimize score and delta Rank1 - Rank2 score thresholds separately for each precursor charge state (1 through 4) across all LC-MS/MS runs per sample. […] Peptide and PSM exports were filtered for contaminants including potential carry over tryptic peptides and peptides identified in a blank bead sample. For TMT-labeled samples, peptides derived from keratin proteins were removed and TMT intensity values were normalized to the global median. P-values were calculated using in house software based on the limma package in R.

MKL-1 cells [2] = experiment: Cell cycle analysis (EdU/DAPI flow cytometry) of MKL-1 control or p53 KO cells; conditions: MKL-1 TP53-WT and TP53-KO; 100 nM; three days
Description: Cell cycle analysis. 1 million MKL-1 control or p53 KO cells were plated and treated with DMSO, XL177A (100 nM) or XL177B (100 nM) for three days. During the last hour of the three- day treatment, the cells were pulsed with 10 µM EdU nucleotide. The cells were collected by centrifugation, treated with Accutase™ (Stem Cell Technologies) to break apart clumps, washed with PBS and fixed using 4% Formaldehyde solution in PBS at Room temperature for 15 mins. Cells were washed with 1% BSA in PBS and resuspended in 70% ice cold ethanol and incubated at -20° C. overnight for additional fixing and permeabilization. The cells were stored in 70% ethanol at -20° C. until the day the data was acquired. On the day of data acquisition, the cells were collected by centrifugation and washed twice with PBS. The incorporated EdU in the cells were labeled with a CLICK reaction cocktail (1 mM CuSO4, 100 µM THPTA, 100 mM sodium ascorbate, and 2.2 µM Alexa 647 azide in PBS) at room temperature with rocking for 30 minutes. The samples were then washed with 1% BSA in PBS once followed by two washes with PBS and incubated with a 1 µg/ml DAPI, 100 ng/ml RNase A solution for one hour at Room temperature to stain the DNA. The samples were then passed through strainer tubes and analyzed using a BD Fortessa analyzer. The flow cytometry data was analyzed using the FlowJo Software. […]

[3] = test system: MCC lines (MCC-301, -277, -290, -320); experiment: USP7 inhibitor experiments: flow cytometry for surface HLA-I in MCC lines
[4] = 100 nM, 3 days, two MCPyV+ lines (MCC-301, -277)

CN1CCN(CCC(=O)Nc2ccc3c(=O)n(CC4(O)CCN(C(=O)[C@@H](CCCNC(=O)c5ccc6c(Cl)c7c(nc6c5)CCCC7)Cc5ccccc5)CC4)cnc3c2)CC1 [XL177A]
surface HLA-I relative to XL177B and DMSO (MKL-1 cells [1]): increased surface HLA-I
abundances of HLA-I displayed peptides compared to XL177B and untreated cells (MCC-301 cells): higher abundances of displayed peptides
frequency of peptides displayed on each HLA-I gene (HLA-A, -B, -C) (MCC-301 cells): did not affect
peptides more abundant than in untreated cells, out of 282 significantly differing (P < 0.05) (MCC-301 cells): 270 peptides
share of the 282 significantly differing peptides more abundant than in untreated cells (MCC-301 cells): 95.7%
cell cycle phase distribution (MKL-1 cells [2]): slight cell cycle shifts from S to G1 phase
increase in expression of surface HLA-I relative to DMSO (mean) [3, 4]: 2.0 fold
increase in expression of surface HLA-I relative to DMSO (range) [3, 4]: 1.78 - 2.27 fold
increase in MFI (HLA-ABC) by flow cytometry ([3]; MCC-301, 100 nM, 4 days): greater than twofold increase
HLA-I levels ([3]; MCPyV- line MCC-290, 3 days): more modest increase in HLA-I levels
HLA-I levels ([3]; MCPyV- line MCC-320, 3 days): but not MCC-320
